The results in this text go back to patent US12139520B2 (priority 2020, dated 2024).

The target in one assay is T1, hAMY3 receptor (Homo sapiens, UniProt O60896+P30988).
T1 sequence (P30988 25-474): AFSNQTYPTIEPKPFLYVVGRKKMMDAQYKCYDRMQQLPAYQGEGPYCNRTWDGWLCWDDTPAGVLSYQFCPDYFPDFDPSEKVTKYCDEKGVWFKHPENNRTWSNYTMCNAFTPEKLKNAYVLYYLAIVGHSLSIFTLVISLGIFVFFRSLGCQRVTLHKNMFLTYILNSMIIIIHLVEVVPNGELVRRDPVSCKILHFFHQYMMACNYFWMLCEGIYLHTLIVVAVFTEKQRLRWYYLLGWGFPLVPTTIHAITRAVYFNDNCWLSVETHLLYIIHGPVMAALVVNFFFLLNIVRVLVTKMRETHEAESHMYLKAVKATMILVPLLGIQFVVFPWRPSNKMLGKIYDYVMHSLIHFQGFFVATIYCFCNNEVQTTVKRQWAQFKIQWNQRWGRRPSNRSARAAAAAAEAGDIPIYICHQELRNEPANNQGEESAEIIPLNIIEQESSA
T1 sequence (O60896 24-148 partner): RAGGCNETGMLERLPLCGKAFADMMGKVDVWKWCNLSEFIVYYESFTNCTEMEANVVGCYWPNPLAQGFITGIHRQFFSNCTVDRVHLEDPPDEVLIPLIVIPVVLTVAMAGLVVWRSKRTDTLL
Briefly: cAMP assay for in vitro receptor activation, hAMY3-R. The format is cell-based. The note with it: cAMP assay, hAMY3 receptor; read-out: hAMY3R EC50. A digest of the protocol:
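Accumulated cAMP was detected by time-resolved FRET one hour after reagent addition. Beforehand, hAMY3-R-overexpressing monoclonal cells (2000/well, DPBS, 0.05% casein, 0.5 mM IBMX) received graded doses of compound for 30 min at room temperature; human amylin served as positive control.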
Background: cAMP levels reflect the balance of adenylyl cyclase and phosphodiesterase activity.

A further assay has as its target hAM1 receptor (Homo sapiens, UniProt O60895+Q16602). Briefly: cAMP assay for in vitro receptor activation, hAM1-R. The format is cell-based. To be noted: cAMP assay, hAM1 receptor; read-out: hAM1R EC50. A digest of the protocol:
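Stable hAM1 cells (monoclonal) plated 8000/well; buffer DPBS, 0.05% casein, 0.5 mM IBMX; cAMP read-out.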

Numbered stars: 1 amine (or outer) side, 2 acyl side, 3 side chain; on linkers, the order of the positions; unused ones are H or OH. Bridge positions count the residues as written; N and C are the ends. Square brackets hold non-standard residues; d marks the D form. Peptide text beside a SMILES is read from it. * marks the point of attachment. C20 diacid = O=C(O)CCCCCCCCCCCCCCCCCCC(=O)*; γGlu = O=C(O)[C@H](CCC(=O)[*:2])N[*:1]; Hyp = O=C(O)[C@@H]1C[C@@H](O)CN1

Usually EC50 stands for the concentration needed to bring the measured effect to its halfway point.

Chain of hAM1 receptor (Q16602 23-461): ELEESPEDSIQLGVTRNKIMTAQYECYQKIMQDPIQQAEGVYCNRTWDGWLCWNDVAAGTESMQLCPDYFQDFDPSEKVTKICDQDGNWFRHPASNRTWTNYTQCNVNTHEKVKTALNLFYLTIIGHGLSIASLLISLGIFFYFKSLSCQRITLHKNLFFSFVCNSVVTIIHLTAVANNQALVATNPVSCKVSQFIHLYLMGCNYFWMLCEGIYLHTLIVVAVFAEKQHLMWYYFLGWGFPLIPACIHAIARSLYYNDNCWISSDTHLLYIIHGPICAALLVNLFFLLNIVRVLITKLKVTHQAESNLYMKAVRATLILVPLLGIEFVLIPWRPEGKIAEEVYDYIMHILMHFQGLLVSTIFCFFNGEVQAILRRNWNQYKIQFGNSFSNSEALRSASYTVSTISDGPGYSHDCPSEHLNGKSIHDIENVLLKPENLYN
Chain of hAM1 receptor (O60895 43-175 partner): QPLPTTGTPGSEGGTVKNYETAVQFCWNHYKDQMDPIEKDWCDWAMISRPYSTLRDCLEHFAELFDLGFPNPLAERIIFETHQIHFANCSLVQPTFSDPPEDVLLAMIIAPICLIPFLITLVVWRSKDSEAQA

With `CC[C@H](C)[C@H](NC(=O)[C@H](CCC(N)=O)NC(=O)[C@H](Cc1c[nH]cn1)NC(=O)[C@H](C)NC(=O)[C@H](CC(C)C)NC(=O)[C@H](CCCNC(=N)N)NC(=O)[C@H](CCC(N)=O)NC(=O)[C@@H](NC(=O)[C@@H](NC(=O)[C@@H]1CSSC[C@H](NC(=O)CN)C(=O)N[C@@H](CCCNC(=N)N)C(=O)N[C@@H](Cc2ccccc2)C(=O)NCC(=O)N[C@@H]([C@@H](C)O)C(=O)N1)[C@@H](C)O)C(C)C)C(=O)N[C@@H](Cc1ccc(O)cc1)C(=O)N[C@@H](CCC(N)=O)C(=O)N[C@@H](Cc1ccccc1)C(=O)N[C@H](C(=O)N[C@@H](CC(=O)O)C(=O)N[C@@H](CCCCN)C(=O)N[C@@H](CC(=O)O)C(=O)N[C@@H](CCCCN)C(=O)N[C@@H](CC(=O)O)C(=O)N[C@@H](CC(N)=O)C(=O)N[C@H](C(=O)N[C@@H](C)C(=O)N1CCC[C@H]1C(=O)N[C@@H](CCCNC(=N)N)C(=O)N[C@H](C(=O)N[C@@H](CCCCN)C(=O)N[C@H](C(=O)N[C@@H](CO)C(=O)N1CCC[C@H]1C(=O)N[C@@H](CCC(N)=O)C(=O)NCC(=O)N[C@@H](Cc1ccc(O)cc1)C(N)=O)C(C)C)[C@@H](C)O)C(C)C)[C@@H](C)O` [compound 155] (H-GCRFGTCTVQRLAHQIYQFTDKDKDNVAPRTKVSPQGY-NH2; disulfide 2-7; N-terminus assumed), the EC50 is 0.045 nM on hAMY3 receptor and 116 nM on hAM1 receptor.

Take `CC[C@H](C)[C@H](NC(=O)[C@H](CCC(N)=O)NC(=O)[C@H](Cc1c[nH]cn1)NC(=O)[C@H](C)NC(=O)[C@H](CC(C)C)NC(=O)[C@H](CCCNC(=N)N)NC(=O)[C@H](CC(=O)O)NC(=O)[C@@H](NC(=O)[C@@H](NC(=O)[C@@H]1CSSC[C@H](NC(=O)[C@H](CCCCN)NC(=O)CC[C@H](NC(=O)CCCCCCCCCCCCCCCCCCC(=O)O)C(=O)O)C(=O)N[C@@H](CC(N)=O)C(=O)N[C@@H]([C@@H](C)O)C(=O)N[C@@H](C)C(=O)N[C@@H]([C@@H](C)O)C(=O)N1)[C@@H](C)O)C(C)C)C(=O)N[C@@H](C)C(=O)N[C@@H](CCC(N)=O)C(=O)N[C@@H](Cc1ccccc1)C(=O)N[C@H](C(=O)N[C@@H](CC(=O)O)C(=O)N[C@@H](CCCCN)C(=O)N[C@@H](CC(=O)O)C(=O)N[C@@H](CCCCN)C(=O)N[C@@H](CC(=O)O)C(=O)N[C@@H](CC(N)=O)C(=O)N[C@H](C(=O)N[C@@H](C)C(=O)N1CCC[C@H]1C(=O)N1CCC[C@H]1C(=O)N[C@H](C(=O)N[C@@H](CC(N)=O)C(=O)N[C@H](C(=O)NCC(=O)N[C@@H](CO)C(=O)N[C@@H](CC(N)=O)C(=O)NCC(=O)N1C[C@H](O)C[C@H]1C(N)=O)C(C)C)[C@@H](C)O)C(C)C)[C@@H](C)O` [compound 112] ({C20 diacid-γGlu}-KCNTATCTVDRLAHQIAQFTDKDKDNVAPPTNVGSNG[Hyp]-NH2; disulfide 2-7): the EC50 at hAMY3 receptor was 0.021 nM; at hAM1 receptor, over 5000 nM.

On to `CC[C@H](C)[C@H](NC(=O)[C@H](C)NC(=O)CNC(=O)[C@H](Cc1ccccc1)NC(=O)[C@H](CC(N)=O)NC(=O)[C@H](CC(N)=O)NC(=O)[C@H](CO)NC(=O)[C@H](CO)NC(=O)[C@H](Cc1c[nH]cn1)NC(=O)[C@@H](NC(=O)[C@H](CC(C)C)NC(=O)[C@H](Cc1ccccc1)NC(=O)[C@H](CC(N)=O)NC(=O)[C@H](C)NC(=O)[C@H](CC(C)C)NC(=O)[C@H](CCCNC(=N)N)NC(=O)[C@H](CCC(N)=O)NC(=O)[C@@H](NC(=O)[C@H](C)NC(=O)[C@@H]1CSSC[C@H](NC(=O)[C@@H](N)CCCCN)C(=O)N[C@@H](CC(N)=O)C(=O)N[C@@H]([C@@H](C)O)C(=O)N[C@@H](C)C(=O)N[C@@H]([C@@H](C)O)C(=O)N1)[C@@H](C)O)C(C)C)C(=O)N[C@@H](CC(C)C)C(=O)N1CCC[C@H]1C(=O)N[C@@H](CCCNC(=N)N)C(=O)N[C@H](C(=O)N[C@@H](CCCCN)C(=O)N[C@H](C(=O)NCC(=O)N[C@@H](CO)C(=O)N[C@@H](CC(N)=O)C(=O)NCC(=O)N[C@@H](Cc1ccc(O)cc1)C(N)=O)C(C)C)[C@@H](C)O` [compound 19] (H-KCNTATCATQRLANFLVHSSNNFGAILPRTKVGSNGY-NH2; disulfide 2-7), for which the values for the EC50 at hAMY3 receptor and at hAM1 receptor were 0.008 nM and over 5000 nM, respectively.

`CC[C@H](C)[C@H](NC(=O)[C@H](CCC(N)=O)NC(=O)[C@H](Cc1c[nH]cn1)NC(=O)[C@H](C)NC(=O)[C@H](CC(C)C)NC(=O)[C@H](CCCNC(=N)N)NC(=O)[C@H](CCC(N)=O)NC(=O)[C@@H](NC(=O)[C@@H](NC(=O)[C@@H]1CSSC[C@H](NC(=O)[C@@H](N)CCCCN)C(=O)N[C@@H](CC(N)=O)C(=O)N[C@@H]([C@@H](C)O)C(=O)N[C@@H](C)C(=O)N[C@@H]([C@@H](C)O)C(=O)N1)[C@@H](C)O)C(C)C)C(=O)N[C@@H](Cc1ccc(O)cc1)C(=O)N[C@@H](CCC(N)=O)C(=O)N[C@@H](Cc1ccccc1)C(=O)N[C@H](C(=O)N[C@@H](CC(=O)O)C(=O)N[C@@H](CCCCN)C(=O)N[C@@H](CC(=O)O)C(=O)N[C@@H](CCCCN)C(=O)N[C@@H](CC(=O)O)C(=O)N[C@@H](CC(N)=O)C(=O)N[C@H](C(=O)N[C@@H](C)C(=O)N[C@@H](C)C(=O)N1CCC[C@H]1C(=O)N[C@H](C(=O)N[C@@H](CC(N)=O)C(=O)N[C@H](C(=O)NCC(=O)N[C@@H](CO)C(=O)N[C@@H](CC(N)=O)C(=O)NCC(=O)N1C[C@H](O)C[C@H]1C(N)=O)C(C)C)[C@@H](C)O)C(C)C)[C@@H](C)O` [compound 53] (H-KCNTATCTVQRLAHQIYQFTDKDKDNVAAPTNVGSNG[Hyp]-NH2; disulfide 2-7; N-terminus assumed): the EC50 at hAMY3 receptor was 0.011 nM; on hAM1 receptor it was over 5000 nM.

In the case of `CC[C@H](C)[C@H](NC(=O)[C@H](CCC(N)=O)NC(=O)[C@H](Cc1c[nH]cn1)NC(=O)[C@H](C)NC(=O)[C@H](CC(C)C)NC(=O)[C@H](CCCNC(=N)N)NC(=O)[C@H](CCC(N)=O)NC(=O)[C@@H](NC(=O)[C@@H](NC(=O)[C@@H]1CSSC[C@H](NC(=O)[C@H](CCCCN)NC(=O)CC[C@H](NC(=O)CCCCCCCCCCCCCCCCCCC(=O)O)C(=O)O)C(=O)N[C@@H](CC(N)=O)C(=O)N[C@@H]([C@@H](C)O)C(=O)N[C@@H](C)C(=O)N[C@@H]([C@@H](C)O)C(=O)N1)[C@@H](C)O)C(C)C)C(=O)N[C@@H](C)C(=O)N[C@@H](CCC(N)=O)C(=O)N[C@@H](Cc1ccccc1)C(=O)N[C@H](C(=O)N[C@@H](CC(=O)O)C(=O)N[C@@H](CCCCN)C(=O)N[C@@H](CC(=O)O)C(=O)N[C@@H](CCCCN)C(=O)N[C@@H](CC(=O)O)C(=O)N1CCC[C@H]1C(=O)N[C@H](C(=O)N[C@@H](C)C(=O)N1CCC[C@H]1C(=O)N1CCC[C@H]1C(=O)N[C@H](C(=O)N[C@@H](CC(N)=O)C(=O)N[C@H](C(=O)NCC(=O)N[C@@H](CO)C(=O)N[C@@H](CC(N)=O)C(=O)N[C@@H](CO)C(=O)N1C[C@H](O)C[C@H]1C(N)=O)C(C)C)[C@@H](C)O)C(C)C)[C@@H](C)O` [compound 120] ({C20 diacid-γGlu}-KCNTATCTVQRLAHQIAQFTDKDKDPVAPPTNVGSNS[Hyp]-NH2; disulfide 2-7), the EC50 at hAMY3 receptor is 0.025 nM; at hAM1 receptor, over 5000 nM.
